Results as given in patent US20200046720A1, “ENGINEERED BIOCOMPATIBLE ANTIBIOTIC PARTICLES AND THEIR USE AGAINST URINARY TRACT INFECTION” (The University of North Carolina at Chapel Hill, priority 2016, published 2020).

Assays:
[1] = system: E. coli UT189; experiment: Rat spinal cord injury UTI infection model; type: in vivo, Escherichia coli; conditions: female SCI rats, single intracystic dose, drained after 1 hour, infected 8 hours later, bladder and kidney
Description: FIGS. 6A-C show PRINT-LEVO provides sustained protection against E. coli UTI in the SCI rat. Female SCI rats were treated by transurethral catheterization and instillation of a volume equivalent to their previously determined residual urine volume containing PBS, PBS with free levofloxacin (5 μg/ml), PRINT-LEVO (formula D5), or BLANK PRINT particles (wt/vol equivalent to PRINT-LEVO). After 1 hour of treatment, all animals had their bladder creded to remove each treatment. The animals were infected with E. coli at increasing time intervals following the administration and drainage of the test or control agents from the bladder: 4 hours (FIG. 6A), 8 hours (FIG. 6B), or 18 hours (FIG. 6C). Bacteria were counted in the bladders and kidneys 24 hours after infection with E. coli by tissue homogenization and plating of dilutions on solid agar medium. Horizontal bars indicate the geometric means.
As described previously, female Sprague-Dawley rats (Harlan; 175-200 gm) underwent controlled surgical T10 spinal cord transection to model spinal cord injury and produce a neurogenic bladder phenotype. […] Due to the spinal cord injury and subsequent neurogenic bladder phenotypes, animals were routinely monitored and creded to relieve urinary retention each 12 hours. […]

[2] = system: E. coli UT189; experiment: Tissue culture-based microbial inhibition assay, intracellular E. coli infection of bladder epithelial cells; type: cell-based, Escherichia coli; conditions: cultured bladder epithelial cells
Description: FIGS. 3A-D show PRINT-Levofloxacin provides prolonged protection against intracellular E. coli infection. UROTSA bladder epithelial cell monolayers were incubated with media, free levofloxacin (FREE LEVO), blank PRINT particles (BLANK PRINT), or a formulation of PRINT encapsulated levofloxacin (PRINT-LEVO) for 1 hour. Each treatment was removed, the cells were washed, and the cells were immediately infected with E. coli UT189 (FIG. 3A), 8 hours later (FIG. 3B), or 18 hours later (FIG. 3C). After 1 hour of infection with E. coli, the medium was replaced with medium containing gentamicin to eliminate extracellular bacteria. Viable bacteria in the bladder epithelial cells were enumerated 24 hours later. The formulations and associated sizes and charges are shown for reference (FIG. 3D). Tissue culture-based microbial inhibition assays-Bladder epithelial cell lines 5637 and UROTSA have been previously described. Tissue culture cells were growth in RPMI 1640 media to 80% confluence and lifted using trypsin-EDTA (Sigma-Aldrich). Twenty four well plates (Genesee Scientific) were seeded with 5637 cells and grown for 2 days at 37° C., 5% CO2 prior to infections. Where appropriate to the assay conditions, unencapsulated (“free”) levofloxacin was added to the wells one hour prior to infection and at the same concentration as wells treated with PRINT-levofloxacin particles. […]

## C[C@H]1COc2c(N3CCN(C)CC3)c(F)cc3c(=O)c(C(=O)O)cn1c23 [free levofloxacin, levofloxacin]
[1]
  protection against E. coli infection (animals infection-free), 8 hour delay: 12.5%
[2]
  time to loss of significant effectiveness after a single dose: ≤ 1 h
